Experimental data as given in US12624023B2, “Sulfonylurea derivatives and uses thereof” (NodThera Limited, priority 2019, dated 2026).

Experiments:
[1] = system: IL-1β release upon NLRP3 activation in human whole blood; experiment: Whole blood (WB) assay (IL-1β release, LPS priming + ATP stimulation, HTRF); format: cell-based; conditions: heparin, diluted 9:5 with media, LPS 1 μg/ml 3 h, compound 30 min, ATP 5 mM 1 h, IL-1β by HTRF
Protocol: The compounds of the present disclosure were tested for their inhibitory activity against IL-1β release upon NLRP3 activation in human whole blood.
Whole blood was drawn from single healthy donors and treated with sodium heparin anticoagulant. Blood was diluted with cell culture media at a 9:5 ratio, seeded in a 96-well plate and incubated for 3 h with lipopolysaccharide (LPS, 1 μg/ml final concentration diluted 1000× from a 1 mg/ml stock solution). The compounds of the present disclosure were added (a single compound concentration per well) and the blood was incubated for 30 min. Next, the blood was stimulated with ATP (5 mM final concentration diluted 20× from a 100 mM stock solution) for 1 h and the cell culture media from the wells were collected for further analysis.
The release of IL-1β into the media was determined by quantitative detection of IL-1β in the media using HTRF®, CisBio cat. No. 62HIL1BPEH. Briefly, cell culture supernatant were diluted as appropriate to bring IL-1β levels within the HTRF® detection range ([…]) and subsequently dispensed into the assay plate containing antibodies labelled with the HTRF® donor and acceptor. A microplate spectrophotometer (BMG) was used to detect signals at 655 nm and 620 nm.

[2] = system: IL-1β release upon NLRP3 activation in peripheral blood mononuclear cells (PBMC); experiment: PBMC IC50 determination assay (IL-1β release, LPS priming + ATP stimulation, HTRF); format: cell-based; conditions: PBMC from buffy coats; LPS 1 μg/ml 3 h, compound 30 min, ATP 5 mM 1 h; IL-1β by HTRF
Protocol: The compounds of the present disclosure were tested for their inhibitory activity against IL-1β release upon NLRP3 activation in peripheral blood mononuclear cells (PBMC).
PBMC were isolated from buffy coats by density gradient centrifugation on Histopaque-1077 (Sigma, cat no. 10771). Isolated cells were seeded into the wells (280,000 cells/well) of a 96-well plate and incubated for 3 h with lipopolysaccharide (LPS, 1 μg/ml diluted 1000× from a 1 mg/ml stock solution). The compounds of the present disclosure were added (a single compound per well) and the cells were incubated for 30 min. Next, the cells were stimulated with ATP (5 mM final concentration diluted 20× from a 100 mM stock solution) for 1 h and the cell culture media from the wells were collected for further analysis.
The release of IL-1β into the media was determined by quantitative detection of IL-1β in the media using HTRF®, CisBio cat. No. 62HIL1BPEH. Briefly, cell culture supernatant were dispensed directly into the assay plate containing antibodies labelled with the HTRF® donor and acceptor. A microplate spectrophotometer (BMG) was used to detect signals at 655 nm and 620 nm. The detection range of IL-1β HTRF® was […].

| IC50 [1] | SMILES | IC50 [2] |
| --- | --- | --- |
| > 20 µM | Cc1nsc(C(C)C)c1NC(=O)NS(=O)(=O)N(c1cnn(C)c1)C1CCCN(C)C1 (centres unmarked) [Compound 124, 1-[(1-Methyl-1H-pyrazol-4-yl)(1-methylpiperidin-3-yl)sulfamoyl]-3-[3-methyl-5-(propan-2-yl)-1,2-thiazol-4-yl]urea] | > 10 µM |
| < 1 µM | Cc1sc2c(c1NC(=O)NS(=O)(=O)N(c1cnn(C3CC3)c1)C1CCCN(C)C1)CCC2 (centres unmarked) [Compound 118, 1-[(1-Cyclopropyl-1H-pyrazol-4-yl)(1-methylpiperidin-3-yl)sulfamoyl]-3-{2-methyl-4H,5H,6H-cyclopenta[b]thiophen-3-yl}urea] | < 0.1 µM |
| < 1 µM | Cc1cc(NC(=O)NS(=O)(=O)N(c2cnn(C3CC3)c2)C2CCCN(C)C2)c(C(C)C)s1 (centres unmarked) [Compound 112, 1-[(1-Cyclopropyl-1H-pyrazol-4-yl)(1-methylpiperidin-3-yl)sulfamoyl]-3-[5-methyl-2-(propan-2-yl)thiophen-3-yl]urea] | < 0.1 µM |
| < 1 µM | CCc1sc2c(c1NC(=O)NS(=O)(=O)N(c1cnn(C)c1)C1CCCN(C)C1)CCC2 (centres unmarked) [Compound 77, 3-{2-Ethyl-4H,5H,6H-cyclopenta[b]thiophen-3-yl}-1-[(1-methyl-1H-pyrazol-4-yl)(1-methylpiperidin-3-yl)sulfamoyl]urea] | < 0.1 µM |
| 1 to 3 µM | Cc1sc(C(C)C)cc1NC(=O)NS(=O)(=O)N(c1cnn(C)c1)[C@@H]1CCCN(C)C1 [Compound 57, 1-[(1-Methyl-1H-pyrazol-4-yl)[(3R)-1-methylpiperidin-3-yl]sulfamoyl]-3-[2-methyl-5-(propan-2-yl)thiophen-3-yl]urea] | 0.1 to 0.5 µM |
| 1 to 3 µM | Cc1cc(NC(=O)NS(=O)(=O)N(c2cnn(C)c2)[C@@H]2CCCN(C)C2)c(C2CC2)s1 [Compound 108, 3-(2-Cyclopropyl-5-methylthiophen-3-yl)-1-[(1-methyl-1H-pyrazol-4-yl)[(3R)-1-methylpiperidin-3-yl]sulfamoyl]urea] | < 0.1 µM |
| < 1 µM | Cc1cc(NC(=O)NS(=O)(=O)N(c2cnn(C3CC3)c2F)C2CCCN(C)C2)c(C(C)C)s1 (centres unmarked) [Compound 114, 1-[(1-Cyclopropyl-5-fluoro-1H-pyrazol-4-yl)(1-methylpiperidin-3-yl)sulfamoyl]-3-[5-methyl-2-(propan-2-yl)thiophen-3-yl]urea] | < 0.1 µM |
| < 1 µM | Cc1sc2c(c1NC(=O)NS(=O)(=O)N(c1cnn(C)c1F)C1CCCN(C)C1)CCC2 (centres unmarked) [Compound 119, 1-[(5-Fluoro-1-methyl-1H-pyrazol-4-yl)(1-methylpiperidin-3-yl)sulfamoyl]-3-{2-methyl-4H,5H,6H-cyclopenta[b]thiophen-3-yl}urea] | < 0.1 µM |
| < 1 µM | Cc1sc2c(c1NC(=O)NS(=O)(=O)N(c1cnn(C)c1)[C@@H]1CCCN(C)C1)CCC2 [Compound 95, 1-[(1-Methyl-1H-pyrazol-4-yl)[(3R)-1-methylpiperidin-3-yl]sulfamoyl]-3-{2-methyl-4H,5H,6H-cyclopenta[b]thiophen-3-yl}urea] | 0.1 to 0.5 µM |
| < 1 µM | Cc1cc(NC(=O)NS(=O)(=O)N(c2cnn(C3CC3)c2)[C@@H]2CCCN(C)C2)c(C(C)C)s1 [Compound 104, 1-[(1-Cyclopropyl-1H-pyrazol-4-yl)[(3R)-1-methylpiperidin-3-yl]sulfamoyl]-3-[5-methyl-2-(propan-2-yl)thiophen-3-yl]urea] | < 0.1 µM |

Further lines, the molecule ahead of its results:

| SMILES | IC50 [1] | IC50 [2] |
| --- | --- | --- |
| CCc1cc(NC(=O)NS(=O)(=O)N(c2cnn(C)c2)[C@@H]2CCCN(C)C2)c(C(C)C)s1 [Compound 61, 3-[5-Ethyl-2-(propan-2-yl)thiophen-3-yl]-1-[(1-methyl-1H-pyrazol-4-yl)[(3R)-1-methylpiperidin-3-yl]sulfamoyl]urea] | 3 to 10 µM | < 0.1 µM |
| CC(C)c1sc(Cl)cc1NC(=O)NS(=O)(=O)N(c1cnn(C)c1)[C@H]1CCN(C)C1 [Compound 128, 3-[5-Chloro-2-(propan-2-yl)thiophen-3-yl]-1-[(1-methyl-1H-pyrazol-4-yl)-[(3S)-1-methylpyrrolidin-3-yl]sulfamoyl]urea] | < 1 µM | < 0.1 µM |
| CC(C)c1cc(NC(=O)NS(=O)(=O)N(c2cnn(C)c2)[C@H]2C[C@@H](F)CN(C)C2)c(C(C)C)s1 [Compound 96, 3-[2,5-Bis(propan-2-yl)thiophen-3-yl]-1-{[(3S,5R)-5-fluoro-1-methylpiperidin-3-yl](1-methyl-1H-pyrazol-4-yl)sulfamoyl}urea] | 3 to 10 µM | 0.1 to 0.5 µM |
| CC(C)c1csc(C(C)C)c1NC(=O)NS(=O)(=O)N(c1cnn(C)c1)C1CCCN(C)C1 (centres unmarked) [Compound 16, 3-[2,4-Bis(propan-2-yl)thiophen-3-yl]-1-[(1-methyl-1H-pyrazol-4-yl)(1-methyl-piperidin-3-yl)sulfamoyl]urea] | 1 to 3 µM | 0.1 to 0.5 µM |
| Cc1cc(NC(=O)NS(=O)(=O)N(c2cnn(C)c2)[C@H]2CCN(C)C2)c(C(C)C)s1 [Compound 127, 1-[(1-Methyl-1H-pyrazol-4-yl)[(3S)-1-methylpyrrolidin-3-yl]sulfamoyl]-3-[5-methyl-2-(propan-2-yl)thiophen-3-yl]urea] | < 1 µM | < 0.1 µM |
| CCc1csc(CC)c1NC(=O)NS(=O)(=O)N(c1cnn(C)c1)C1CCOCC1 [Compound 7, 3-(2,4-Diethylthiophen-3-yl)-1-[(1-methyl-1H-pyrazol-4-yl)(oxan-4-yl)sulfamoyl]urea] | 10 to 20 µM | 1 to 5 µM |
| CCc1cc(CC)c(NC(=O)NS(=O)(=O)N(c2cnn(C)c2)C2CCCN(C)C2)s1 (centres unmarked) [Compound 29, 3-(3,5-Diethylthiophen-2-yl)-1-[(1-methyl-1H-pyrazol-4-yl)(1-methylpiperidin-3-yl)sulfamoyl]urea] | 1 to 3 µM | 0.1 to 0.5 µM |
| CC(C)c1cc(NC(=O)NS(=O)(=O)N(c2cnn(C)c2)[C@H]2CCCN(C)C2)c(C(C)C)s1 [Compound 56, 3-[2,5-Bis(propan-2-yl)thiophen-3-yl]-1-[(1-methyl-1H-pyrazol-4-yl)[(3S)-1-methylpiperidin-3-yl]sulfamoyl]urea] | < 1 µM | < 0.1 µM |
| CC(C)c1cc(C(C)C)c(NC(=O)NS(=O)(=O)N(c2cnn(C)c2)C2CCCN(C)C2)s1 (centres unmarked) [Compound 52, 3-[3,5-Bis(propan-2-yl)thiophen-2-yl]-1-[(1-methyl-1H-pyrazol-4-yl)(1-methyl-piperidin-3-yl)sulfamoyl]urea] | 1 to 3 µM | < 0.1 µM |
| CCc1cc(NC(=O)NS(=O)(=O)N(c2cnn(C)c2)C2CCOCC2)c(CC)o1 [Compound 65, 3-(2,5-Diethylfuran-3-yl)-1-[(1-methyl-1H-pyrazol-4-yl)(oxan-4-yl)sulfamoyl]-urea] | > 20 µM | 1 to 5 µM |
| Cc1cc(NC(=O)NS(=O)(=O)N(c2cnn(C)c2)[C@H]2C[C@H](F)CN(C)C2)c(C(C)C)s1 [Compound 111, 1-{[(3S,5S)-5-Fluoro-1-methylpiperidin-3-yl](1-methyl-1H-pyrazol-4-yl)sulfamoyl}-3-[5-methyl-2-(propan-2-yl)thiophen-3-yl]urea] | 1 to 3 µM | 0.1 to 0.5 µM |
| CCc1cc(NC(=O)NS(=O)(=O)N(c2cnn(C)c2)C2CCOCC2)c(CC)s1 [Compound 4, 3-(2,5-Diethylthiophen-3-yl)-1-[(1-methyl-1H-pyrazol-4-yl)(oxan-4-yl)sulfamoyl]urea] | 10 to 20 µM | 1 to 5 µM |
| Cc1cc(NC(=O)NS(=O)(=O)N(c2cnn(C)c2F)C2CCCN(C)C2)c(C(C)C)s1 (centres unmarked) [Compound 115, 1-[(5-Fluoro-1-methyl-1H-pyrazol-4-yl)(1-methylpiperidin-3-yl)sulfamoyl]-3-[5-methyl-2-(propan-2-yl)thiophen-3-yl]urea] | < 1 µM | < 0.1 µM |
| Cc1sc2ccccc2c1NC(=O)NS(=O)(=O)N(c1cnn(C)c1)C1CCOCC1 [Compound 3, 3-(2-Methyl-1-benzothiophen-3-yl)-1-[(1-methyl-1H-pyrazol-4-yl)(oxan-4-yl)sulfamoyl]urea] | > 20 µM | 1 to 5 µM |
| CCc1cc(NC(=O)NS(=O)(=O)N(c2cnn(C(C)C)c2)[C@@H]2CCCN(C)C2)c(CC)o1 [Compound 71, 3-(2,5-Diethylfuran-3-yl)-1-{[(3R)-1-methylpiperidin-3-yl][1-(propan-2-yl)-1H-pyrazol-4-yl]sulfamoyl}urea] | 1 to 3 µM | 0.1 to 0.5 µM |
